Assay results: ChEMBL document CHEMBL4393695, “Thiazole orange - Spermine conjugate: A potent human telomerase inhibitor comparable to BRACO-19” (Eur J Med Chem, 2019)
pKd: −log10 of the molar value. Active and inactive are the calls of the source. The calls are words filed in the database; no cut-off is given here.

Columns and labels:
[1] = target: Telomerase reverse transcriptase (Homo sapiens) (UniProt O14746); conditions: HeLa, Lysate, 50 uM
Description: Inhibition of telomerase activity in human HeLa cell lysate at 50 uM in presence of [32P]-labeled template primer by TRAP assay

Quadruplex DNA [2] = assay: Binding affinity to G-quadruplex G1 DNA (unknown origin) assessed as melting temperature at compound to DNA ratio of 4:1 in presence of 100 mM K+ by circular dichroism thermal denaturation analysis (Rvb= 52.6 degC); format: nucleic-acid assay
Quadruplex DNA [3] = assay: Binding affinity to G-quadruplex G1 DNA (unknown origin) assessed as melting temperature at compound to DNA ratio of 4:1 in presence of 150 mM Na+ by circular dichroism thermal denaturation analysis (reference value: 57.4 degC); format: nucleic-acid assay
[4] = Ratio of Kd for human G-quadruplex G1 DNA to Kd for 17 mer duplex D1 DNA (unknown origin) by flourimetric titration analysis
[5] = target: Telomerase reverse transcriptase (Homo sapiens) (UniProt O14746); assay: Inhibition of telomerase activity in human HeLa cell lysate at 6.25 uM in presence of [32P]-labeled template primer by TRAP assay; format: subcellular
Quadruplex DNA [6] = assay: Binding affinity to human G-quadruplex G1 DNA assessed as increase in fluorescence at 0.5 uM incubated for 30 mins in dark by fluorescence titration analysis relative to control; format: nucleic-acid assay
Quadruplex DNA [7] = assay: Binding affinity to G-quadruplex G2 DNA (unknown origin) assessed as change in melting temperature at compound to DNA ratio of 7:1 by fluorescence thermal denaturation analysis; format: nucleic-acid assay
Quadruplex DNA [8] = assay: Binding affinity to human G-quadruplex G1 DNA assessed as equilibrium dissociation constant at 0.5 uM incubated for 30 mins under dark condition by fluorometric titration analysis; format: nucleic-acid assay
Quadruplex DNA [9] = assay: Ratio of thiazole orange Kd to compound Kd for human G-quadruplex G1 DNA at 0.5 uM incubated for 30 mins in dark by fluorimetric titration analysis; format: nucleic-acid assay
dsDNA = assay: Binding affinity to 17 mer duplex D1 DNA (unknown origin) assessed as equilibrium dissociation constant at 0.5 uM incubated for 30 mins under dark condition by fluorometric titration analysis; format: nucleic-acid assay
[10] = target: Telomerase reverse transcriptase (Homo sapiens) (UniProt O14746); assay: Inhibition of telomerase activity in human HeLa cell lysate at 6.25 uM in presence of [32P]-labeled template primer by TRAP assay relative to control; format: subcellular
HeLa [11] = assay: Inhibition of DNA polymerase activity in human HeLa cell lysate at 6.25 uM in presence of [32P]-labeled template primer by TRAP assay relative to control; format: subcellular
[12] = target: Telomerase reverse transcriptase (Homo sapiens) (UniProt O14746); assay: Inhibition of telomerase activity in human HeLa cell lysate at 10 uM in presence of [32P]-labeled template primer by TRAP assay; format: subcellular
HeLa [13] = assay: Inhibition of DNA polymerase activity in human HeLa cell lysate at 10 uM in presence of [32P]-labeled template primer by TRAP assay; format: subcellular
HeLa [14] = assay: Inhibition of DNA polymerase activity in human HeLa cell lysate at 5 uM in presence of [32P]-labeled template primer by TRAP assay; format: subcellular
[15] = target: Telomerase reverse transcriptase (Homo sapiens) (UniProt O14746); assay: Inhibition of telomerase activity in human HeLa cell lysate at 0.156 to 2.5 uM in presence of [32P]-labeled template primer by TRAP assay; format: subcellular
[16] = target: Telomerase reverse transcriptase (Homo sapiens) (UniProt O14746); assay: Inhibition of telomerase activity in human HeLa cell lysate at 0.078 uM in presence of [32P]-labeled template primer by TRAP assay; format: subcellular
HeLa [17] = assay: Inhibition of DNA polymerase activity in human HeLa cell lysate at 0.156 to 2.5 uM in presence of [32P]-labeled template primer by TRAP assay; format: subcellular
[18] = target: Telomerase reverse transcriptase (Homo sapiens) (UniProt O14746); assay: Inhibition of telomerase activity in human HeLa cell lysate at 5 uM in presence of [32P]-labeled template primer by TRAP assay; format: subcellular
[19] = target: Telomerase reverse transcriptase (Homo sapiens) (UniProt O14746); conditions: HeLa, Lysate, 10 to 100 uM
Description: Inhibition of telomerase activity in human HeLa cell lysate at 10 to 100 uM in presence of [32P]-labeled template primer by TRAP assay

HeLa [20] = conditions: Homo sapiens, Lysate, 10 to 100 uM
Description: Inhibition of DNA polymerase activity in human HeLa cell lysate at 10 to 100 uM in presence of [32P]-labeled template primer by TRAP assay

Quadruplex DNA [21] = assay: Binding affinity to G-quadruplex G2 DNA (unknown origin) assessed as increase in deltaTm at compound to DNA ratio of 10:1 by fluorescence thermal denaturation analysis; format: nucleic-acid assay
HeLa [22] = assay: Inhibition of DNA polymerase activity in human HeLa cell lysate at 6.25 uM in presence of [32P]-labeled template primer by TRAP assay; format: subcellular
[23] = target: Telomerase reverse transcriptase (Homo sapiens) (UniProt O14746); assay: Inhibition of telomerase activity in human HeLa cell lysate in presence of [32P]-labeled template primer by TRAP assay; format: subcellular
HeLa [24] = assay: Inhibition of DNA polymerase activity in human HeLa cell lysate at 0.625 to 10 uM in presence of [32P]-labeled template primer by TRAP assay; format: subcellular
[25] = target: Telomerase reverse transcriptase (Homo sapiens) (UniProt O14746); assay: Inhibition of telomerase activity in human HeLa cell lysate at 0.625 uM in presence of [32P]-labeled template primer by TRAP assay; format: subcellular
HeLa [26] = assay: Inhibition of DNA polymerase activity in human HeLa cell lysate at <10 uM in presence of [32P]-labeled template primer by TRAP assay; format: subcellular
[27] = target: Telomerase reverse transcriptase (Homo sapiens) (UniProt O14746); assay: Inhibition of telomerase activity in human HeLa cell lysate at <10 uM in presence of [32P]-labeled template primer by TRAP assay; format: subcellular
[28] = target: Telomerase reverse transcriptase (Homo sapiens) (UniProt O14746); assay: Inhibition of telomerase activity in human HeLa cell lysate at <=2.5 uM in presence of [32P]-labeled template primer by TRAP assay; format: subcellular
HeLa [29] = assay: Inhibition of DNA polymerase activity in human HeLa cell lysate at <=2.5 uM in presence of [32P]-labeled template primer by TRAP assay; format: subcellular
[30] = target: Telomerase reverse transcriptase (Homo sapiens) (UniProt O14746); assay: Inhibition of telomerase activity in human HeLa cell lysate at 0.039 to 10 uM in presence of [32P]-labeled template primer by TRAP assay; format: subcellular
HeLa [31] = assay: Inhibition of DNA polymerase activity in human HeLa cell lysate at 50 uM in presence of [32P]-labeled template primer by TRAP assay; format: subcellular

Telomerase reverse transcriptase (Homo sapiens), sequence (O14746 whole entry): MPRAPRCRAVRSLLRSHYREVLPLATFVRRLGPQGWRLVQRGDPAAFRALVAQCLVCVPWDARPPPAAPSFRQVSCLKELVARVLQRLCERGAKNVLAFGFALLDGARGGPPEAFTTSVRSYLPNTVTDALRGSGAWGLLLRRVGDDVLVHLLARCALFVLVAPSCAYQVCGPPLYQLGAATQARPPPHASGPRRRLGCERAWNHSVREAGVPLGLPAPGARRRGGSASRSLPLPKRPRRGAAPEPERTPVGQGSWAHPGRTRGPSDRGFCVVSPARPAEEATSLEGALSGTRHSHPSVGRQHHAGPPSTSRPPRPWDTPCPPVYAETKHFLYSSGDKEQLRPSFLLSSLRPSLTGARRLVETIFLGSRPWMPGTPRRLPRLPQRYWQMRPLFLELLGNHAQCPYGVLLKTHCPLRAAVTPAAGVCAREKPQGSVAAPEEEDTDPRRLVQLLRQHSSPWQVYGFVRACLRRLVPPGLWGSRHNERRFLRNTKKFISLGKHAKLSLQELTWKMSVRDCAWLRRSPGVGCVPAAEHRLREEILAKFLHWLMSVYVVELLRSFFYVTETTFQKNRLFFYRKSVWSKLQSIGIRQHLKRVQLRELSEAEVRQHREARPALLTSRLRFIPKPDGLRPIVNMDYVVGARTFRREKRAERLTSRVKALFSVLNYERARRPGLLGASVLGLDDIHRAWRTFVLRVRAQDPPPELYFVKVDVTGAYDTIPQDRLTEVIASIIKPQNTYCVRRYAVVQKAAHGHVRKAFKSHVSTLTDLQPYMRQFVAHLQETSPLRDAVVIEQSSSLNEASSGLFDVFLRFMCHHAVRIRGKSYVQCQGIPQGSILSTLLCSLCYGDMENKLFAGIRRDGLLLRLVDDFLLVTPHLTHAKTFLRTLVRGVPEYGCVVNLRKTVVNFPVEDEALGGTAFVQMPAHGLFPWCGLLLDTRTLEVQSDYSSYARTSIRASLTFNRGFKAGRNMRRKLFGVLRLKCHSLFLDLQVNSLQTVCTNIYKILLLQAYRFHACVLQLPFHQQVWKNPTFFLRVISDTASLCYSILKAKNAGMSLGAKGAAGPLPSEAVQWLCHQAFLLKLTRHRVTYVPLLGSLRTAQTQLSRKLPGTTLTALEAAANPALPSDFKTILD

Compound | Tm (Quadruplex DNA [2]) | Tm (Quadruplex DNA [3]) | Ratio [4] | inhibition [5] | fold change (FC) (Quadruplex DNA [6]) | Activity (Quadruplex DNA [21]) | inhibition (HeLa [22]) | other results
C/C(=C\C(=O)Nc1ccccc1C(=O)O)c1ccc2ccccc2c1 |  |  |  |  |  |  |  | inhibition [1]: Active
CN1/C(=C/c2cc[n+](C)c3ccccc23)Sc2ccccc21 | 63.4 °C | 60 °C | 2.18 | Active | 340 |  |  | 
C[n+]1c(/C=C2\C=CN(CC(=O)NCCCNCCCCNCCCN)c3ccccc32)sc2ccccc21 | 71 °C | 65 °C | 2.33 |  | 200 |  |  | ΔTm (Quadruplex DNA [7]): 6.9 °C; KdH (Quadruplex DNA [8]): 0.07 µM; KdL (Quadruplex DNA [8]): 1.73 µM; Ratio (Quadruplex DNA [9]): 12.4; KdH (dsDNA): 0.03 µM; KdL (dsDNA): 0.65 µM; inhibition [10]: 100%; inhibition (HeLa [11]): 100%; inhibition [12]: 100%; inhibition (HeLa [13]): 100%; inhibition (HeLa [14]): Active; inhibition [15]: Active; inhibition [16]: inactive; inhibition (HeLa [17]): inactive; inhibition [18]: 100%
O=C1c2ccc3c4ccc5c6c(ccc(c7ccc(c2c37)C(=O)N1CCN1CCCCC1)c64)C(=O)N(CCN1CCCCC1)C5=O |  |  |  |  |  |  |  | inhibition [12]: inactive
NCCCNCCCCNCCCN |  |  |  |  |  |  |  | inhibition [19]: inactive; inhibition (HeLa [20]): inactive
C[n+]1c(/C=C2\C=CN(CC(=O)NCCOCCOCCOCCN)c3ccccc32)sc2ccccc21 | 59.4 °C | 57 °C |  | inactive |  | Active | inactive | 
C[n+]1c(/C=C2\C=CN(CC(=O)NCCN)c3ccccc32)sc2ccccc21 | 59.2 °C | 57.5 °C |  | inactive |  | Active | inactive | 
C[n+]1c(/C=C2\C=CN(CC(=O)NCCN3CCCCC3)c3ccccc32)sc2ccccc21 | 64 °C | 56 °C | 4.18 | Active | 200 | Active | inactive | pKd (Quadruplex DNA [8]): 5.95; pKd (dsDNA): 6.57; EC [23]: 5 µM; inhibition (HeLa [24]): inactive
C[n+]1c(/C=C2\C=CN(CC(=O)NCCOCCN)c3ccccc32)sc2ccccc21 | 58.7 °C | 56 °C |  | inactive |  | Active | inactive | 
C[n+]1c(/C=C2\C=CN(CC(=O)NCCN3CCCC3)c3ccccc32)sc2ccccc21 | 69.4 °C | 62.5 °C | 0.79 | Active | 200 |  | inactive | ΔTm (Quadruplex DNA [7]): 7.1 °C; KdH (Quadruplex DNA [8]): 0.3 µM; KdL (Quadruplex DNA [8]): 1.77 µM; pKd (dsDNA): 6.42; EC [23]: 2.5 µM; inhibition (HeLa [24]): inactive
C[n+]1c(/C=C2\C=CN(CC(=O)NCCCCCCN)c3ccccc32)sc2ccccc21 | 62.3 °C | 60 °C |  | Active |  | Active | inactive | 
C[n+]1c(/C=C2\C=CN(CC(=O)NCCCNCCCN)c3ccccc32)sc2ccccc21 | 60.5 °C | 61.5 °C | 2.8 | Active | 200 | Active | inactive | KdH (Quadruplex DNA [8]): 0.14 µM; KdL (Quadruplex DNA [8]): 0.95 µM; KdH (dsDNA): 0.05 µM; KdL (dsDNA): 0.92 µM; inhibition [12]: Active; inhibition (HeLa [13]): Active; inhibition [25]: Active; inhibition (HeLa [26]): inactive; inhibition [27]: Active
CN(C)c1ccc(Nc2c3ccc(NC(=O)CCN4CCCC4)cc3nc3cc(NC(=O)CCN4CCCC4)ccc23)cc1 |  |  |  |  |  |  |  | inhibition [12]: Active; inhibition (HeLa [13]): Active; inhibition [28]: Active; inhibition (HeLa [29]): inactive; inhibition [30]: Active
C[n+]1c(/C=C2\C=CN(CC(=O)NCCNCCNCCN)c3ccccc32)sc2ccccc21 | 62.4 °C | 58.5 °C |  | Active |  | Active | inactive | inhibition [12]: Active; inhibition [25]: inactive; inhibition (HeLa [26]): inactive; inhibition [27]: Active
C[n+]1c(/C=C2\C=CN(CC(=O)O)c3ccccc32)sc2ccccc21 | 54 °C | 57.1 °C |  | inactive |  |  | inactive | 
CN1C=C/C(=C\c2sc3ccccc3[n+]2C)c2ccccc21 |  |  |  |  |  |  |  | pKd (Quadruplex DNA [8]): 6.06; pKd (dsDNA): 6.40
C[n+]1ccc(-c2c3nc(c(-c4cc[n+](C)cc4)c4ccc([nH]4)c(-c4cc[n+](C)cc4)c4ccc([nH]4)c(-c4cc[n+](C)cc4)c4nc2C=C4)C=C3)cc1 |  |  |  |  |  |  |  | inhibition (HeLa [31]): Active; inhibition [1]: Active
C[n+]1c(/C=C2\C=CN(CC(=O)NCCOCCN3CCCC3)c3ccccc32)sc2ccccc21 | 59.7 °C | 60.5 °C | 2.7 | Active | 200 | Active | inactive | pKd (Quadruplex DNA [8]): 5.78; pKd (dsDNA): 6.21
C[n+]1c(/C=C2\C=CN(CC(=O)NCCCN)c3ccccc32)sc2ccccc21 | 60.2 °C | 56.5 °C |  | inactive |  | Active | inactive | 
C[n+]1c(/C=C2\C=CN(CC(=O)NCCOCCN3CCCCC3)c3ccccc32)sc2ccccc21 | 64.9 °C | 60.5 °C | 3.57 | Active | 200 | Active | inactive | pKd (Quadruplex DNA [8]): 5.66; pKd (dsDNA): 6.15
